Four compounds from patent US20100029668A1, “NOVEL PYRIDAZINE DERIVATIVES” (SYNGENTA CROP PROTECTION, INC., priority 2006, published 2010) can be followed below.

For data set [1], the system named is Pyrenophora teres (Helminthosporium teres). Kind of data set: Pyrenophora teres (Helminthosporium teres)/Barley/Preventive (action against net blotch on barley). The format is in vivo. The note with it: 96 h, preventive spray, barley plants cv. Regina, assessed 4 days after inoculation, read-out: inhibit fungal infestation. As for the experimental part: Pyrenophora teres (Helminthosporium teres)/Barley/Preventive (Action Against Net Blotch on Barley) 1-week-old barley plants cv. Regina are treated with the formulated test compound in a spray chamber. Two days after application barley plants are inoculated by spraying a spore suspension (2.6×10^4 conidia/ml) on the test plants. After an incubation period of 4 days at 20° C. and 95% r. h. the disease incidence is assessed.

Data set [2] has as its system Maqnaporthe grisea (Pyricularia oryzae). Kind of data set: whole plant or invertebrate. The format is in vivo. The note with it: 144 h, read-out: inhibit fungal infestation.
For a further data set, the system named is Botrvtis cinerea. The data set can be described thus: Botrvtis cinerea/Tomato/Preventive (action against Botrytis on tomato). The format is in vivo. The note with it: Solanum lycopersicum, 72 h, preventive spray, tomato plants cv. Roter Gnom, assessed 3 days after inoculation, read-out: inhibit fungal infestation. As for the experimental part:
Botrvtis cinerea/Tomato/Preventive (Action Against Botrytis on Tomato) 4 weeks old tomato plants cv. Roter Gnom are treated with the formulated test compound in a spray chamber. Two days after application tomato plants are inoculated by spraying a spore suspension on the test plants. After an incubation period of 3 days at 20° C. and 95% r. h. in a greenhouse the disease incidence is assessed.

Another data set has as its system Alternaria solani. Kind of data set: Alternaria solani/Tomato/Preventive (action against Alternaria on tomato). The format is in vivo. The note with it: 96 h, preventive spray, tomato plants cv. Roter Gnom, assessed 4 days after inoculation, read-out: inhibit fungal infestation. As for the experimental part:
Alternaria solani/Tomato/Preventive (Action Against Alternaria on Tomato) 4 weeks old tomato plants cv. Roter Gnom are treated with the formulated test compound in a spray chamber. Two days after application tomato plants are inoculated by spraying a spore suspension on the test plants. After an incubation period of 4 days at 22° C./18° C. and 95% r. h. in a greenhouse the disease incidence is assessed.

The test system of the next data set is Uncinula necator. The data set can be described thus: Uncinula necator/Grape/Preventive (action against powdery mildew on grape). The format is in vivo. The note with it: Erysiphe necator, 168 h, preventive spray, grape seedlings cv. Gutedel, assessed 7 days after inoculation, read-out: inhibit fungal infestation. As for the experimental part: Uncinula necator/Grape/Preventive (Action Against Powdery Mildew on Grape) 5 weeks old grape seedlings cv. Gutedel are treated with the formulated test compound in a spray chamber. One day after application grape plants are inoculated by shaking plants infected with grape powdery mildew above the test plants. After an incubation period of 7 days at 24° C./22° C. and 70% r. h. under a light regime of 14/10 h (light/dark) the disease incidence is assessed.

The next data set has as its system Puccinia recondita. Kind of data set: Puccinia recondita/Wheat/Preventive (action against brown rust on wheat). The format is in vivo. The note with it: 264 h, preventive spray, wheat plants cv. Arina, assessed 11 days after inoculation, read-out: inhibit fungal infestation. As for the experimental part: Puccinia recondita /Wheat/Preventive (Action Against Brown Rust on Wheat) 1 week old wheat plants cv. Arina are treated with the formulated test compound in a spray chamber. One day after application wheat plants are inoculated by spraying a spore suspension ([…] uredospores/ml) on the test plants. After an incubation period of 1 day at 20° C. and 95% r. h. plants are kept for 10 days 20° C./18° C. (day/night) and 60% r.h. in a greenhouse. The disease incidence is assessed 11 days after inoculation.

Structures are written as SMILES.

For `CSc1ccc(-c2c(C)n[nH]c(=O)c2-c2ncc(Cl)cc2Cl)nc1` [I.u.006, 4-(3,5-dichloro-pyridin-2-yl)-6-methyl-5-(5-methylsulfanyl-pyridin-2-yl)-2H-pyridazin-3-one], the melting point amounted to 229 °C.

Regarding `CSc1ccc(-c2c(C)nnc(C)c2-c2ncc(Cl)cc2Cl)nc1` [I.u.010, 4-(3,5-dichloro-pyridin-2-yl)-3,6-dimethyl-5-(5-methylsulfanyl-pyridin-2-yl)-pyridazine], the inhibition at 200 ppm in data set [1] and in data set [2] was at least 80% in each case.

`CSc1ccc(-c2c(C)nnc(Cl)c2-c2ncc(Cl)cc2Cl)nc1` [I.u.008, 3-chloro-4-(3,5-dichloro-pyridin-2-yl)-6-methyl-5-(5-methylsulfanyl-pyridin-2-yl)-pyridazine] returned a melting point of 163 °C. In data set [1], the inhibition at 200 ppm was at least 80%. In addition, the inhibition at 200 ppm in the data set on Botrvtis cinerea was at least 80%. In the data set with Alternaria solani, the inhibition at 200 ppm was at least 80%. Moreover, the inhibition at 200 ppm in the data set with Uncinula necator was at least 80%.

`COc1nnc(C)c(-c2ccc(SC)cn2)c1-c1ncc(Cl)cc1Cl` [I.u.009, 4-(3,5-dichloro-pyridin-2-yl)-3-methoxy-6-methyl-5-(5-methylsulfanyl-pyridin-2-yl)-pyridazine] had a melting point of 170 to 171 °C. The inhibition at 200 ppm with Puccinia recondita is at least 80%. Moreover, the inhibition at 200 ppm in the data set with Botrvtis cinerea was at least 80%.

One may read the melting point as the temperature of the solid-liquid transition.
